Results on one molecule are retold here after patent US11992468B2, “Abuse-deterrent dosage forms containing esketamine” (Clexio Biosciences Ltd., priority 2019, dated 2024).

Structures are written as SMILES. Where a name gives a salt, the structure may show the parent alone.

This data set can be described thus: Simulated in vitro nasal diffusion/release (vertical diffusion cell). The conditions noted are these: pH 6.4.

`CN[C@]1(c2ccccc2Cl)CCCCC1=O` [Esketamine HCl powder, esketamine hydrochloride] registered a recovery at 10 min of 45.1%, a recovery at 30 min of 75.9% and a recovery at 60 min of 79.2%.
